In assay [1] the test system is mouse model of stabilized unilateral tibial fracture. As to the kind of experiment: Static weight bearing (incapacitance meter) after tibial fracture. Type of assay: in vivo. Particulars: for ipsilateral weight bearing vs pre-fracture baseline: adenosine-loaded hydrogel at fracture site. The protocol:
The aim of the experiments described herein was to examine the effectiveness of local delivery of adenosine in tibial bone injury to concurrently attenuate fracture/post-surgical pain while promoting healing. All animal work was performed in compliance with the National Institutes of Health (NIH) and institutional guidelines, and the fracture surgery and biomaterial implantation protocols approved by the Institutional Animal Care and Use Committee at Duke University (Protocol Registry Number A151-20-07) were followed. C57BL/6J mice were used to study fracture nociception and the effect of local delivery of adenosine to mitigate pain and promote bone regeneration. Lepr-cre; tdTomato reporter mice were used for tracing of LepR(+) lineage cells after fracture. To determine the effect of adenosine on pain and healing, fracture surgeries were performed and treated immediately with PEGDA-6ACA-PBA macroporous hydrogels loaded with adenosine as treatment group or without adenosine as control group (Zeng Y, et al. (2020) Adv Mater. 32:e1906022). Behavioral tests for pain and limb function were assessed by weight bearing and open field locomotion. A priori power analysis was used to estimate the sample size requiring a statistical power (1−β) of 80% at the significance level of α=5%. On the basis of the power calculation, the indicated number was 8 animals per group for fracture pain and 4 animals per group for fracture healing. Ten animals per group were used to study the effect of adenosine on fracture pain, and 5 animals per group were used to examine the effect of adenosine on fracture healing. The exclusion criteria for experiments were animals that died due to the surgical procedures or shift of the intramedullary pin identified after experimental endpoint post-mortem. No randomization was used and researchers were not blinded. Measurement of adenosine in the circulation was performed by using an adenosine assay. The in vitro functional activity of DRG neurons was assessed by calcium and membrane potential imaging and the expression of proteins were assessed by histology or immunofluorescence imaging, and gene expression by RT-qPCR. Fracture healing was analyzed by microCT and histology. The study design and timeline of animal procedures (pin placement, surgery, therapeutic intervention with and without adenosine, and behavioral tests) are illustrated in FIG. 10A (weight bearing) and FIG. 10A (open field locomotion).
In all experiments, 12-week-old to 16-week-old C57BL/6J male mice (Jackson Laboratory, Bar Harbor, ME) and Lepr-cre; tdTomato reporter mice were used. The average mouse weight was 25 grams and mice were housed in groups of four to five, and kept on a 12-hr light-dark cycle with lights off at 1800 hr. All animals had ad libitum access to chow (PMI LabDiet 5001) and water. Fracture surgeries were performed as previously described (Zeng Y, et al. (2020) Adv Mater. 32:e1906022). Animals were anesthetized by isoflurane and injected with 1 mg/kg buprenorphine SR-LAB (ZooPharm, Laramie, WY). Each mouse was then placed in a supine position with the right tibia disinfected. After skin incision and reflection, proximal to the right knee, a 0.7-mm pin was inserted from the tibial plateau through the medullary cavity to stabilize the tibia, and a cut was made at the tibial midshaft to induce a transverse fracture. Bupivacaine (0.5%; Hospira, Lake Forest, IL) at ˜1 mg/kg body weight was applied at the surgical site following wound closure using 2 reflex clips (5 mm). For animals treated with control and adenosine-loaded macroporous hydrogels, macroporous hydrogels measuring approximately 5 mm (length)×3 mm (width)×1 mm (thick) containing either 1.05±0.1 mg adenosine (ADO) or no adenosine (CTL) were implanted adjacent to the fractures immediately. […] The animals were treated with the macroporous hydrogels with or without adenosine immediately following the fracture. […]

The next assay has as its system fractured tibiae. As to the kind of experiment: Safranin O histology of fractured tibiae. Type of assay: in vivo, mouse. Particulars: 21 days post-fracture. The protocol: In all experiments, 12-week-old to 16-week-old C57BL/6J male mice (Jackson Laboratory, Bar Harbor, ME) and Lepr-cre; tdTomato reporter mice were used. The average mouse weight was 25 grams and mice were housed in groups of four to five, and kept on a 12-hr light-dark cycle with lights off at 1800 hr. All animals had ad libitum access to chow (PMI LabDiet 5001) and water. Fracture surgeries were performed as previously described (Zeng Y, et al. (2020) Adv Mater. 32:e1906022). Animals were anesthetized by isoflurane and injected with 1 mg/kg buprenorphine SR-LAB (ZooPharm, Laramie, WY). Each mouse was then placed in a supine position with the right tibia disinfected. After skin incision and reflection, proximal to the right knee, a 0.7-mm pin was inserted from the tibial plateau through the medullary cavity to stabilize the tibia, and a cut was made at the tibial midshaft to induce a transverse fracture. Bupivacaine (0.5%; Hospira, Lake Forest, IL) at ˜1 mg/kg body weight was applied at the surgical site following wound closure using 2 reflex clips (5 mm). For animals treated with control and adenosine-loaded macroporous hydrogels, macroporous hydrogels measuring approximately 5 mm (length)×3 mm (width)×1 mm (thick) containing either 1.05±0.1 mg adenosine (ADO) or no adenosine (CTL) were implanted adjacent to the fractures immediately. […]

`Nc1ncnc2c1ncn2[C@@H]1O[C@H](CO)[C@@H](O)[C@H]1O` [adenosine]: the “degree of decrease in weight bearing vs untreated group” value in assay [1] (2 dpf and 4 dpf) was “less”. The “percent change in weight bearing from baseline” value in assay [1] (2 dpf and 4 dpf) is “significant decreases”; in assay [1] (8 dpf), “returned to baseline”. Moreover, the “ipsilateral weight bearing vs pre-fracture baseline” value in assay [1] (2 days post-fracture) is “significantly decreased”; in assay [1] (by 8 days post-fracture), “returned back to the baseline”. Moreover, the “effect size of treatment on weight bearing” value in assay [1] (each timepoint, effect size r) is “large effect size”. The “ipsilateral hindlimb weight bearing vs control-treated limbs” value in assay [1] (hydrogel with 1.05±0.1 mg adenosine implanted next to fracture, all post-fracture timepoints (2, 4, 8 dpf)) was “significantly higher”. Also, in the assay on fractured tibiae, the “callus size vs controls (histology)” value was “smaller callus size”. In the assay on fractured tibiae, the “cortical bone at fracture site vs controls (histology)” value is reported as “more cortical bone across the fracture site”.

Values taken from patent US20250152616A1, “COMPOSITIONS FOR AND METHODS OF TREATING, PREVENTING, AND/OR MITIGATING PAIN” (Duke University, priority 2022, published 2025).
